In ChEMBL document CHEMBL1126603, “Synthesis and pharmacokinetics of a dihydropyridine chemical delivery system for the antiimmunodeficiency virus agent dideoxycytidine” (J Med Chem, 1993):

system: MT4; experiment: Growth inhibition of HIV-1 in human lymphocyte MT-4 cells; format: functional, cell-based

`Nc1ccn([C@H]2CC[C@@H](CO)O2)c(=O)n1` (stereo in doubt; form 1) [ZALCITABINE] and `CN1C=CCC(C(=O)OCC2CCC(n3ccc(N)nc3=O)O2)=C1` (centres undefined) are within 1.5-fold of each other in IC50: 1 µM for the first, 1.2 µM for the second.

Going from `CN1C=CCC(C(=O)Nc2ccn(C3CCC(CO)O3)c(=O)n2)=C1` (centres undefined) to `CN1C=CCC(C(=O)Nc2ccn(C3CCC(COC(=O)C4=CN(C)C=CC4)O3)c(=O)n2)=C1` (centres undefined), the IC50 rises from 1.2 µM to 1.9 µM (1.6-fold). The first is the more potent here.
